Drawing on patent publication US5981517A, “Androstene derivatives” (priority 1997, dated 1999), this text covers Vasoconstriction activity for one compound.

The test system of this experiment is forearm of a human volunteer. The experiment is described as follows: Further human vasoconstriction testing, Method 2. Format: in vivo. Set-up: key: +: "positive" (pallor could be observed); -: "negative" (pallor could not be detected). Here is the method: The mixtures, in 20 μL amounts, were applied to circular patches (1/4 inch diameter). The patches were applied to the forearm of a human volunteer, and covered with a water impervious film for 3 hr. Vasoconstriction activity was judged by the appearance of pallor at various time points after the patches were removed. Tests were performed on the same person and the results were obtained from 2-4 observations.
In TABLE XIV above, "-" means a negative result was obtained. In other tables herein, "-" means not tested.
In TABLE XIV above, the results of a simpler method of judging vasoconstriction activity was used in which only "positive" (pallor could be observed) or "negative" (pallor could not be detected) results were recorded.

As for `CCCCC(=O)O[C@]1(C(=O)CO)[C@@H](C)C[C@H]2[C@@H]3CCC4=CC(=O)C=C[C@]4(C)[C@@]3(F)[C@@H](O)C[C@@]21C` [Betamethasone 17-valerate, reference compound], the Vasoconstriction activity entry reads like this: (4 Hours, 0.01 mM) “-”; (4 Hours, 0.05 mM) “-”; (4 Hours, 0.1 mM) “-”; (4 Hours, 0.5 mM) “-”; (4 Hours, 1 mM) “+”; (4 Hours, 5 mM) “+”. Also, the Vasoconstriction activity result (8 Hours, 0.01 mM) is “-”; the Vasoconstriction activity result (8 Hours, 0.05 mM) is recorded as “-”; the Vasoconstriction activity result (8 Hours, 0.1 mM) is reported as “-”; the Vasoconstriction activity result (8 Hours, 0.5 mM) is given as “+”; the Vasoconstriction activity entry (8 Hours, 1 mM) was “+”; the Vasoconstriction activity result (8 Hours, 5 mM) was “+”. For the same compound, the Vasoconstriction activity result is recorded as “-” (10-22 hours, 0.01 mM); “-” (10-22 hours, 0.05 mM); “-” (10-22 hours, 0.1 mM); “+” (10-22 hours, 0.5 mM); “+” (10-22 hours, 1 mM); “+” (10-22 hours, 5 mM). For the same compound, the Vasoconstriction activity result is listed as “-” (24 Hours, 0.01 mM); “-” (24 Hours, 0.05 mM); “-” (24 Hours, 0.1 mM); “-” (24 Hours, 0.5 mM); “+” (24 Hours, 1 mM); “+” (24 Hours, 5 mM).
